# Source: patent EP3436445B1, “HISTONE DEMETHYLASE INHIBITORS” (Celgene Quanticel Research, Inc., priority 2016, dated 2017)
# What was measured:
# [1] = target: T1, JMJD2C (Homo sapiens, UniProt Q9H3R0); test: JMJD2C in vitro enzyme inhibition assay (TR-FRET); type: biochemical; conditions: Table 5; 0.3 nM JMJD2C, H3K9me3-biotin labeled peptide
# T1 construct: purchased BPS Bioscience 50105
# T1 sequence (Q9H3R0 2-372): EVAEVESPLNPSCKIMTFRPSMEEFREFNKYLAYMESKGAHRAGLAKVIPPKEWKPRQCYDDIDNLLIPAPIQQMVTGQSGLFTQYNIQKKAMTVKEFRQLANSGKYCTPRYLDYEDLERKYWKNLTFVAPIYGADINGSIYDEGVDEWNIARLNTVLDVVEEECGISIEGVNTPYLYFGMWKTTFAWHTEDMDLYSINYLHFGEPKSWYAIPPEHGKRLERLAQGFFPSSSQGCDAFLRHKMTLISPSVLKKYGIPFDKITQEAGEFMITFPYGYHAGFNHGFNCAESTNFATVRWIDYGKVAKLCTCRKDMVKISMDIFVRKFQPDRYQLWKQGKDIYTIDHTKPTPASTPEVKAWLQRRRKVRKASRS
# From the text: (§1) This assay determines the ability of a test compound to inhibit Jarid1B, JMJD2C and JMJD3 demethylase activity. Baculovirus expressed Jarid1B (GenBank Accession #NM-006618, AA 2-751) was purchased from BPS Bioscience (Cat #50121) or custom made by MolecularThroughput. Baculovirus expressed JMJD2C (GenBank Accession #BC143571, AA 2-372) was purchased from BPS Bioscience (Cat#50105). Baculovirus expressed JMJD3 (GenBank Accession #NM-001080424, AA1043-end) was purchased from BPS Bioscience (Cat#50115).
# The ability of test compounds to inhibit the activity of JMJD2C was determined in 384-well plate format under the following reaction conditions: 0.3 nM JMJD2C, 300 nM H3K9me3-biotin labeled peptide (Anaspec cat #64360), 2 µM alpha-ketoglutaric acid in assay buffer of 50 mM HEPES, pH7.3, 0.005% Brij35, 0.5 mM TCEP, 0.2 mg/ml BSA, 50 µM sodium L-ascorbate, and 2 µM ammonium iron(II) sulfate. Reaction product was determined quantitatively by TR-FRET after the addition of detection reagent Phycolink Streptavidin-allophycocyanin (Prozyme) and Europium-anti-di-methylated histone H3 lysine 9 (H3K9me2) antibody (PerkinElmer) in the presence of 5 mM EDTA in LANCE detection buffer (PerkinElmer) at a final concentration of 50 nM and 1 nM, respectively.
# (§2) The assay reaction was initiated by the following: 2 µl of the mixture of 900 nM H3K9me3-biotin labeled peptide and 6 µM alpha-ketoglutaric acid with 2 µl of 11-point serial diluted inhibitor in 3% DMSO were added to each well of the plate, followed by the addition of 2 µl of 0.9 nM JMJD2C to initiate the reaction. The reaction mixture was incubated at room temperature for 30 minutes, and terminated by the addition of 6 µl of 5 mM EDTA in LANCE detection buffer containing 100 nM Phycolink Streptavidin-allophycocyanin and 2 nM Europium-anti-H3K9me2 antibody. Plates were read by EnVisionMultilabel Reader in TR-FRET mode (excitation at 320 nm, emission at 615 nm and 665 nm) after 1 hour incubation at room temperature. A ratio was calculated (665/615) for each well and fitted to determine inhibition constant (IC50).
# [2] = target: T2, Jarid1B (Homo sapiens, UniProt Q9UGL1); test: Jarid1B in vitro enzyme inhibition assay (TR-FRET); type: biochemical; conditions: Table 5; 0.8 nM Jarid1B, H3K4me3-biotin labeled peptide; read-out: JARID1B IC5
# T2 construct: purchased BPS Bioscience (or custom made by MolecularThroughput) 50121
# T2 sequence (Q9UGL1 2-751): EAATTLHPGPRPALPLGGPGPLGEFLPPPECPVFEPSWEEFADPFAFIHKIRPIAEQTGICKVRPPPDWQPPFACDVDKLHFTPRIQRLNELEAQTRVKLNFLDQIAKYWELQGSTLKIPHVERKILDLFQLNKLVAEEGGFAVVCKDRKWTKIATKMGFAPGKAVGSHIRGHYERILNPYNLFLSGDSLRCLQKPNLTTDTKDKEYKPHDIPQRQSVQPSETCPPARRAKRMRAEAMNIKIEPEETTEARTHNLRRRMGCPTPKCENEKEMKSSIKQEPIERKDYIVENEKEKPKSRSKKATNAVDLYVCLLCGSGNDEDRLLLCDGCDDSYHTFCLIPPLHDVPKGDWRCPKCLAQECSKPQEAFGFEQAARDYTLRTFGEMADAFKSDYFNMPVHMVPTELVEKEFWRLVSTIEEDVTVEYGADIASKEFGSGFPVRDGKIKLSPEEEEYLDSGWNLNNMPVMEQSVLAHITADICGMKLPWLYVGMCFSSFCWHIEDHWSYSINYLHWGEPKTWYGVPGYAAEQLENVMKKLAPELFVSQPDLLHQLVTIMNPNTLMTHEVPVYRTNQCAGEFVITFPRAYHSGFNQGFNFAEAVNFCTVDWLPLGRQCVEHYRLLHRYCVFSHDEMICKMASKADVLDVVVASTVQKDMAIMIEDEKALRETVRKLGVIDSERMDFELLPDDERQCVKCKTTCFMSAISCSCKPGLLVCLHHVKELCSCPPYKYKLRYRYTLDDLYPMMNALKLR
# From the text: as §1
# The ability of test compounds to inhibit the activity of Jarid1B was determined in 384-well plate format under the following reaction conditions: 0.8 nM Jarid1B, 300 nM H3K4me3-biotin labeled peptide (Anaspec cat #64357), 2 µM alpha-ketoglutaric acid in assay buffer of 50 mM HEPES, pH7.3, 0.005% Brij35, 0.5 mM TCEP, 0.2 mg/ml BSA, 50 µM sodium L-ascorbate, and 2 µM ammonium iron(II) sulfate. Reaction product was determined quantitatively by TR-FRET after the addition of detection reagent Phycolink Streptavidin-allophycocyanin (Prozyme) and Europium-anti-mono-or di-methylated histone H3 lysine 4 (H3K4me1-2) antibody (PerkinElmer) in the presence of 5 mM EDTA in LANCE detection buffer (PerkinElmer) at a final concentration of 25 nM and 1 nM, respectively.
# as §2, with “nM H3K4me3-biotin” for “nM H3K9me3-biotin”, “DMSO was” for “DMSO were”, “of 2.4” for “of 0.9”, “nM Jarid1B” for “nM JMJD2C”, “containing 50” for “containing 100”, “nM Europium-anti-H3K4me1-2” for “nM Europium-anti-H3K9me2”
SMILES,IC50 [1] [nM],IC50 [2] [nM]
"Cc1ccc(Cn2cnc(-c3cc(-c4nn[nH]c4C(F)(F)F)ccn3)c2)c(F)c1 [Example 71, 2-{1-[(2-fluoro-4-methylphenyl)methyl]-1H-imidazol-4-yl}-4-[5-(trifluoromethyl)-1H-1,2,3-triazol-4-yl]pyridine]",> 10000,100 to 1000
"CC(c1ccccc1)n1cnc(-c2cc(-c3nn[nH]c3C(F)(F)F)ccn2)c1 (stereo not drawn) [Example 73, 2-[1-(1-phenylethyl)-1H-imidazol-4-yl]-4-[5-(trifluoromethyl)-1H-1,2,3-triazol-4-yl]pyridine]",> 10000,100 to 1000
"Cc1ccc(Cn2cnc(-c3cc(-c4nn[nH]c4C(F)(F)F)ccn3)c2)cc1 [Example 65, 2-{1-[(4-methylphenyl)methyl]-1H-imidazol-4-yl}-4-[5-(trifluoromethyl)-1H-1,2,3-triazol-4-yl]pyridine]",> 10000,> 10000
"FC(F)(F)c1ccccc1CCn1cnc(-c2cc(-c3nn[nH]c3C(F)(F)F)ccn2)c1 [Example 60, 4-[5-(trifluoromethyl)-1H-1,2,3-triazol-4-yl]-2-(1-{2-[2-(trifluoromethyl)phenyl]ethyl}-1H-imidazol-4-yl)pyridine]",1000 to 10000,≤ 100
"Fc1cccc(CCn2cnc(-c3cc(-c4nn[nH]c4C(F)(F)F)ccn3)c2)c1 [Example 78, 2-{1-[2-(3-fluorophenyl)ethyl]-1H-imidazol-4-yl}-4-[5-(trifluoromethyl)-1H-1,2,3-triazol-4-yl]pyridine]",> 10000,≤ 100
Fc1ccc(CCn2cnc(-c3cc(-c4nn[nH]c4C(F)(F)F)ccn3)c2)cc1 [Example 77],> 10000,≤ 100
"Fc1ccccc1CCn1cnc(-c2cc(-c3nn[nH]c3C(F)(F)F)ccn2)c1 [Example 84, 2-{1-[2-(2-fluorophenyl)ethyl]-1H-imidazol-4-yl}-4-[5-(trifluoromethyl)-1H-1,2,3-triazol-4-yl]pyridine]",> 10000,≤ 100
CCOc1ccccc1CCn1cnc(-c2cc(-c3nn[nH]c3C(F)(F)F)ccn2)c1 [Example 59],> 10000,≤ 100
"CCC(c1ccccc1)n1cnc(-c2cc(-c3nn[nH]c3C(F)(F)F)ccn2)c1 (stereo not drawn) [Example 74, 2-[1-(1-phenylpropyl)-1H-imidazol-4-yl]-4-[5-(trifluoromethyl)-1H-1,2,3-triazol-4-yl]pyridine]",> 10000,100 to 1000

# The remaining lines, values ahead:
IC50 [1] [nM],IC50 [2] [nM],SMILES
> 10000,100 to 1000,"CC(C)(C)c1ccc(CCn2cnc(-c3cc(-c4nn[nH]c4C(F)(F)F)ccn3)c2)cc1 [Example 96, 2-{1-[2-(4-tert-butylphenyl)ethyl]-1H-imidazol-4-yl}-4-[5-(trifluoromethyl)-1H-1,2,3-triazol-4-yl]pyridine]"
> 10000,100 to 1000,"FC(F)(F)c1ccc(CCn2cnc(-c3cc(-c4nn[nH]c4C(F)(F)F)ccn3)c2)cc1 [Example 94, 4-[5-(trifluoromethyl)-1H-1,2,3-triazol-4-yl]-2-(1-{2-[4-(trifluoromethyl)phenyl]ethyl}-1H-imidazol-4-yl)pyridine]"
> 10000,≤ 100,"Fc1ccc2c(c1)CCCC2Cn1cnc(-c2cc(-c3nn[nH]c3C(F)(F)F)ccn2)c1 (stereo not drawn) [Example 100, 2-{1-[(6-fluoro-1,2,3,4-tetrahydronaphthalen-1-yl)methyl]-1H-imidazol-4-yl}-4-[5-(trifluoromethyl)-1H-1,2,3-triazol-4-yl]pyridine]"
> 10000,100 to 1000,"CCc1ccc(CCn2cnc(-c3cc(-c4nn[nH]c4C(F)(F)F)ccn3)c2)cc1 [Example 95, 2-{1-[2-(4-ethylphenyl)ethyl]-1H-imidazol-4-yl}-4-[5-(trifluoromethyl)-1H-1,2,3-triazol-4-yl]pyridine]"
> 10000,≤ 100,"COc1ccc2c(c1)C(Cn1cnc(-c3cc(-c4nn[nH]c4C(F)(F)F)ccn3)c1)CCC2 (stereo not drawn) [Example 106, 2-{1-[(7-methoxy-1,2,3,4-tetrahydronaphthalen-1-yl)methyl]-1H-imidazol-4-yl}-4-[5-(trifluoromethyl)-1H-1,2,3-triazol-4-yl]pyridine]"
> 10000,≤ 100,"O=C(c1ccccc1)N1CCC[C@H](n2cnc(-c3cc(-c4nn[nH]c4C(F)(F)F)ccn3)c2)C1 [Example 90, 2-{1-[(3S)-1-benzoylpiperidin-3-yl]-1H-imidazol-4-yl}-4-[5-(trifluoromethyl)-1H-1,2,3-triazol-4-yl]pyridine]"
> 10000,100 to 1000,"COc1ccc2c(c1)CCCC2Cn1cnc(-c2cc(-c3nn[nH]c3C(F)(F)F)ccn2)c1 (stereo not drawn) [Example 105, 2-{1-[(6-methoxy-1,2,3,4-tetrahydronaphthalen-1-yl)methyl]-1H-imidazol-4-yl}-4-[5-(trifluoromethyl)-1H-1,2,3-triazol-4-yl]pyridine]"
> 10000,≤ 100,"COc1ccc(CCn2cnc(-c3cc(-c4nn[nH]c4C(F)(F)F)ccn3)c2)cc1 [Example 93, 2-{1-[2-(4-methoxyphenyl)ethyl]-1H-imidazol-4-yl}-4-[5-(trifluoromethyl)-1H-1,2,3-triazol-4-yl]pyridine]"
> 10000,100 to 1000,"FC(F)(F)c1[nH]nnc1-c1ccnc(-c2cn(CCc3ccc(Cl)cc3)cn2)c1 [Example 92, 2-{1-[2-(4-chlorophenyl)ethyl]-1H-imidazol-4-yl}-4-[5-(trifluoromethyl)-1H-1,2,3-triazol-4-yl]pyridine]"
